The results in this text go back to the supplement of paper PMC10307832.

Common to all, as to experiment: relative viability (nuclei count vs DMSO), 5 days (fraction); higher = more cells survive
Compound in the assay “Entinostat + Vorinostat”: Nc1ccccc1NC(=O)c1ccc(CNC(=O)OCc2cccnc2)cc1 [Entinostat] + O=C(CCCCCCC(=O)Nc1ccccc1)NO [Vorinostat] (partner 1 µM)
An outline of the steps: (§1)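 Dosing by pin tool came one day after lung cancer cell lines were seeded in 1536-well plates, using either one drug or a fixed anchor-drug dose plus five library-drug doses (not always all listed) in √10 steps. After 5 days, nuclei were counted on 4× images. Relative viability is treated-well nuclei count divided by vehicle-well nuclei count, and values are medians of duplicate plates.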

Compound in the assay “SGI-1776 + OSI-027”: CN1CCC(CNc2ccc3ncc(-c4cccc(OC(F)(F)F)c4)n3n2)CC1 [SGI-1776] + COc1cccc2cc(-c3nc([C@H]4CC[C@H](C(=O)O)CC4)n4ncnc(N)c34)[nH]c12 [OSI-027] (partner 0.5 µM)
An outline of the steps:
as §1

Compound in assay [1]: C1COCCN1C2=NC(=NC3=C2OC4=C3C=CC=N4)C5=CC(=CC=C5)NC(=O)C6=CN=C(C=C6)N + Cc1cc(Nc2cc(N3CCN(C)CC3)nc(Sc3ccc(NC(=O)C4CC4)cc3)n2)n[nH]1 [Tozasertib] (partner 0.1 µM)
An outline of the steps:
as §1

Compound in the assay “Entinostat + Pictilisib”: Nc1ccccc1NC(=O)c1ccc(CNC(=O)OCc2cccnc2)cc1 [Entinostat] + CS(=O)(=O)N1CCN(Cc2cc3nc(-c4cccc5[nH]ncc45)nc(N4CCOCC4)c3s2)CC1 [Pictilisib] (partner 1 µM)
An outline of the steps: as §1

Consider NCI-H2170, for which the relative viability was 0.803 in the assay with Entinostat + Vorinostat (first compound 0.02 µM); 0.72 with Entinostat + Vorinostat (first compound 0.06325 µM); 0.683 with Entinostat + Vorinostat (first compound 0.2 µM); 0.476 with Entinostat + Vorinostat (first compound 0.6325 µM); 0.265 with Entinostat + Vorinostat (first compound 2 µM); 0.741 with SGI-1776 + OSI-027 (first compound 0.08 µM). Besides, the relative viability was 0.671 with SGI-1776 + OSI-027 (first compound 0.8 µM); 0.666 with SGI-1776 + OSI-027 (first compound 2.53 µM); 0.67 with SGI-1776 + OSI-027 (first compound 8 µM); 0.742 in assay [1] (first compound 0.02 µM); 0.828 in assay [1] (first compound 0.06325 µM); 0.633 in assay [1] (first compound 0.2 µM). Besides, the relative viability was found to be 0.703 in assay [1] (first compound 0.6325 µM); 0.445 in assay [1] (first compound 2 µM); 0.38 with Entinostat + Pictilisib (first compound 0.02 µM); 0.375 with Entinostat + Pictilisib (first compound 0.06325 µM); 0.325 with Entinostat + Pictilisib (first compound 0.2 µM); 0.235 in the assay with Entinostat + Pictilisib (first compound 0.6325 µM). For the same cell line, in the assay with Entinostat + Pictilisib (first compound 2 µM), the relative viability is 0.167.

On to NCI-H2228, for which the relative viability with Entinostat + Vorinostat (first compound 0.02 µM) amounted to 0.675; in the assay with Entinostat + Vorinostat (first compound 0.06325 µM) it was 0.683; with Entinostat + Vorinostat (first compound 0.2 µM), 0.761; in the assay with Entinostat + Vorinostat (first compound 0.6325 µM), 0.406; with Entinostat + Vorinostat (first compound 2 µM) it was 0.32; in the assay with SGI-1776 + OSI-027 (first compound 0.08 µM), 0.644. Also, the relative viability came out at 0.582 with SGI-1776 + OSI-027 (first compound 0.8 µM); 0.425 with SGI-1776 + OSI-027 (first compound 2.53 µM); 0.275 with SGI-1776 + OSI-027 (first compound 8 µM); 0.227 in assay [1] (first compound 0.02 µM); 0.204 in assay [1] (first compound 0.06325 µM); 0.193 in assay [1] (first compound 0.2 µM). For the same cell line, the relative viability turned out to be 0.213 in assay [1] (first compound 0.6325 µM); 0.186 in assay [1] (first compound 2 µM); 0.289 in the assay with Entinostat + Pictilisib (first compound 0.02 µM); 0.285 in the assay with Entinostat + Pictilisib (first compound 0.06325 µM); 0.292 with Entinostat + Pictilisib (first compound 0.2 µM); 0.253 with Entinostat + Pictilisib (first compound 0.6325 µM). The relative viability with Entinostat + Pictilisib (first compound 2 µM) was 0.161.

Regarding NCI-H2347, the relative viability with Entinostat + Vorinostat (first compound 0.02 µM) turned out to be 0.368; with Entinostat + Vorinostat (first compound 0.06325 µM), 0.643; in the assay with Entinostat + Vorinostat (first compound 0.2 µM), 0.528; with Entinostat + Vorinostat (first compound 0.6325 µM) it was 0.303; with Entinostat + Vorinostat (first compound 2 µM), 0.264; with SGI-1776 + OSI-027 (first compound 0.08 µM) it was 0.421. For the same cell line, the relative viability with SGI-1776 + OSI-027 (first compound 0.8 µM) came to 0.489; with SGI-1776 + OSI-027 (first compound 2.53 µM) it was 0.518; with SGI-1776 + OSI-027 (first compound 8 µM) it was 0.426; in assay [1] (first compound 0.02 µM), 0.513; in assay [1] (first compound 0.06325 µM), 0.711; in assay [1] (first compound 0.2 µM) it was 0.42. The relative viability was 0.544 in assay [1] (first compound 0.6325 µM); 0.387 in assay [1] (first compound 2 µM); 0.494 in the assay with Entinostat + Pictilisib (first compound 0.02 µM); 0.321 with Entinostat + Pictilisib (first compound 0.06325 µM); 0.333 with Entinostat + Pictilisib (first compound 0.2 µM); 0.216 with Entinostat + Pictilisib (first compound 0.6325 µM). In the assay with Entinostat + Pictilisib (first compound 2 µM), the relative viability worked out at 0.345.

For NCI-H2405, the relative viability with Entinostat + Vorinostat (first compound 0.02 µM) turned out to be 1.23; with Entinostat + Vorinostat (first compound 0.06325 µM), 1.02; with Entinostat + Vorinostat (first compound 0.2 µM) it was 0.979; with Entinostat + Vorinostat (first compound 0.6325 µM) it was 0.693; in the assay with Entinostat + Vorinostat (first compound 2 µM) it was 0.42; with SGI-1776 + OSI-027 (first compound 0.08 µM), 0.643. Moreover, the relative viability with SGI-1776 + OSI-027 (first compound 0.8 µM) amounted to 0.659; in the assay with SGI-1776 + OSI-027 (first compound 2.53 µM), 0.549; with SGI-1776 + OSI-027 (first compound 8 µM), 0.568; in assay [1] (first compound 0.02 µM), 0.762; in assay [1] (first compound 0.06325 µM) it was 0.75; in assay [1] (first compound 0.2 µM), 0.715. Also, the relative viability in assay [1] (first compound 0.6325 µM) amounted to 0.73; in assay [1] (first compound 2 µM) it was 0.607; in the assay with Entinostat + Pictilisib (first compound 0.02 µM), 0.483; with Entinostat + Pictilisib (first compound 0.06325 µM), 0.678; with Entinostat + Pictilisib (first compound 0.2 µM), 0.545; with Entinostat + Pictilisib (first compound 0.6325 µM), 0.393. For the same cell line, the relative viability in the assay with Entinostat + Pictilisib (first compound 2 µM) was determined as 0.222.

As for NCI-H3122, the relative viability in the assay with Entinostat + Vorinostat (first compound 0.02 µM) came out at 1.09; with Entinostat + Vorinostat (first compound 0.06325 µM), 0.904; with Entinostat + Vorinostat (first compound 0.2 µM), 0.979; in the assay with Entinostat + Vorinostat (first compound 0.6325 µM) it was 0.634; with Entinostat + Vorinostat (first compound 2 µM), 0.255; with SGI-1776 + OSI-027 (first compound 0.08 µM), 0.988. Besides, the relative viability came to 0.967 with SGI-1776 + OSI-027 (first compound 0.8 µM); 0.926 with SGI-1776 + OSI-027 (first compound 2.53 µM); 0.862 in the assay with SGI-1776 + OSI-027 (first compound 8 µM); 0.404 in assay [1] (first compound 0.02 µM); 0.47 in assay [1] (first compound 0.06325 µM); 0.341 in assay [1] (first compound 0.2 µM). Moreover, the relative viability turned out to be 0.364 in assay [1] (first compound 0.6325 µM); 0.289 in assay [1] (first compound 2 µM); 0.648 with Entinostat + Pictilisib (first compound 0.02 µM); 0.663 in the assay with Entinostat + Pictilisib (first compound 0.06325 µM); 0.678 with Entinostat + Pictilisib (first compound 0.2 µM); 0.441 in the assay with Entinostat + Pictilisib (first compound 0.6325 µM). Further, in the assay with Entinostat + Pictilisib (first compound 2 µM), the relative viability worked out at 0.298.
